For assay [1], the system named is Pseudoperonospora cubensis (PSPECU). To be noted: in vivo.
The test system of assay [2] is Plasmopara viticola (PLASVI). It counts as in vivo. Particulars: fungicide with Formulation I at 100 ppm.
Assay [3] has as its system Pseudoperonospora cubensis. As to the kind of experiment: Drop-band treatment of cucumber leaves, then spray inoculation with zoospores (Examples 1-3). It counts as in vivo. On the procedure: The following examples were carried out on greenhouse and growth chamber experiments on cucumber plants. The cucumber plants were grown from seed in soil-free medium mix (Metro-Mix 360®) and maintained in a glasshouse with supplementary light sources to provide a 16 hour photoperiod at 24-29° C. until the plants had produced 1-2 true leaves. Plants were then trimmed to 1 true leaf, approximately 8 cm across by removing any additional leaves.
Referring below to Table 1, Dithane M45 and Dithane OS are standard commercial formulations. Isovaleraldehyde loaded onto PergoPak was prepared using the following procedure: a mixture of 1.35 g of PergoPak M (polyurea), 0.15 g of isovaleraldehyde and 8 mL of ether was stirred at room temperature for 10 min. The mixture was then concentrated by rotatory evaporation at room temperature under a slight vacuum to provide a solid that was air dried for an hour at room temperature and then bottled. All treatments were prepared by adding the appropriate amount of each treatment to distilled water to give the desired concentration of active ingredient. Dithane® M45 suspensions were initially prepared via serial dilution. Mancozeb/isovaleraldehyde solutions were prepared by adding a prepared isovaleraldehyde solution to a prepared mancozeb suspension. All solutions were vortexed and sonicated prior to treatment application to ensure that they were homogenous.
A sporangial suspension of Pseudoperonospora cubensis was made by collecting leaves with freshly sporulating lesions and washing them in distilled water, which was made up of equal volumes of chilled (4° C.) and tap distilled water (21° C.). The suspension was then left on the lab bench for 2 hours to allow the release of zoospores from the sporangia. After 2 hours the suspension was filtered through filter paper (“Whatman”, 12.5 cm, grade 113V) to remove any remaining sporangia and mycelial fragments. The zoospore concentration was determined and then adjusted to the desired concentration with distilled water.
For each example described below, an area 5 cm wide by 1 cm deep was initially marked on each cucumber leaf by placing a mark in each corner of the area. This was repeated on four separate plants to give four replicates for each treatment. Ten 15 microlitre drops were then applied to each leaf in two 5 drop bands (1 cm between each drop) and allowed to dry overnight. Subsequently a zoospore suspension of Pseudoperonospora cubensis (30,000 zoospores/mL) was sprayed with a hand-atomiser to the entire leaf until run-off. Plants were placed in a dew room (22° C. and 99% RH) for 24 hours then maintained in a growth room with supplementary light sources to provide a 14 hour photoperiod at 18° C. and 70% RH until disease assessment.
Assessment of the effectiveness of the treatment was done by visual infection within the banded area. The banded area was evaluated on a percentage scale (with 0% representing no infection and 100% representing infection of the entire area) after 5-7 days.

Assay [4] is classed as in vivo. Particulars: mancozeb:fluazinam 1:1, mancozeb:dimethomorph 2:1, Formul. I/II at 100 ppm, untreated check 95%.
The test system of assay [5] is Phytophthora infestans (PHYTIN). It counts as in vivo. To be noted: fungicide with Formulation I at 100 ppm.

Where two headings read alike, the source gives them in different places.

On to mancozeb, for which the “effect of Formulation I on the effectiveness of fungicides, PSPECU” value in assay [1] is reported as “xx (key: x: 0-20% reduction in percent disease; xx: 21-35% reduction in percent disease; xxx: 36-50% reduction in percent disease; xxxx: >50% reduction in percent disease)”. In addition, the “Reduction in percent disease PLASVI” value in assay [2] (Table 18) and in assay [2] (Table 19) was “xx (21-35% reduction in percent disease)” in each case. For the same substance, the “effect of Formulation I on the effectiveness of fungicides, PLASVI” value in assay [2] (Table 20) is recorded as “xx (21-35% reduction in percent disease)”. Also, the “Percent infection of Pseudoperonospora cubensis on cucumbers” value in assay [3] (mancozeb 10 ppm (Dithane 60 OS) alone, 5 days after application) was 31%; in assay [3] (mancozeb 10 ppm (Dithane M45) alone, 6 days after application), 31%; in assay [3] (mancozeb 10 ppm (Dithane M45) alone, 7 days after application), 30%; in assay [3] (mancozeb 50 ppm (Dithane 60 OS) alone, 5 days after application) it was 25%; in assay [3] (mancozeb 50 ppm (Dithane M45) alone, 6 days after application), 21%; in assay [3] (mancozeb 50 ppm (Dithane M45) alone, 7 days after application), 11%. The “Percent infection of Pseudoperonospora cubensis on cucumbers” value stood at 10% in assay [3] (mancozeb 100 ppm (Dithane 60 OS) alone, 5 days after application); 16% in assay [3] (mancozeb 100 ppm (Dithane M45) alone, 6 days after application); 6% in assay [3] (mancozeb 100 ppm (Dithane M45) alone, 7 days after application). In addition, the results for the Percent disease in assay [4] (1.6 ppm mancozeb) and in assay [4] (3.1 ppm mancozeb) were 71% and 79%, respectively. The figures for the “Reduction in percent disease PHYTIN” value in assay [5] (Table 18) and in assay [5] (Table 19) were “x (0-20% reduction in percent disease)” and “xxx (36-50% reduction in percent disease)”, respectively. Besides, in assay [5] (Table 20), the “effect of Formulation I on the effectiveness of fungicides, PHYTIN” value was “xx (21-35% reduction in percent disease)”.

Values taken from US20090246293A1 (priority 2008, published 2009).
